{"source": "patent US10766902B2", "about": "“Wee-1 inhibiting pyrazolopyrimidinone compounds” (ALMAC DISCOVERY LIMITED, priority 2016, dated 2020)", "key": {"ROCK1": {"target": "ROCK1 (Homo sapiens (Human), UniProt Q13464)", "experiment": "SelectScreen Kinase Profiling: ROCK1", "assay_type": "biochemical", "conditions": "tested at 300-350 nM", "description": "(§1) Table 4 below highlights the selectivity of a representative compound of the invention, Example 5, against a panel of 50 kinases (assessed using the Invitrogen SelectScreen® Kinase Profiling Service)."}, "HT29 cells": {"system": "HT29 cells", "experiment": "Cell viability (CellTiter-Glo), HT29", "assay_type": "cell-based", "conditions": "Homo sapiens, HT-29; cell viability after 72 hours", "experimental": "(§2) All cell lines (HT29, A427, A498, SKLU-1) were obtained from the American Type Culture Collection (ATCC), maintained in the recommended media supplemented with 10% (v/v) FBS, 1% (v/v) Penicillin/streptomycin and kept at 37° C. in a humidified atmosphere with 5% CO2. Cells were seeded in 96 wp format typically at a seeding density of 3500-5000 cells/well and treated after 24 hours with increasing concentration of compound from 0 to 100 μM in ½ log unit increments. Cell viability was assessed after 72 hours (HT29, A427) or after 6 days (SKLU-1, A498) by CellTiter-Glo® as recommended by the manufacturer's instructions (Promega). Analysis and EC50 values were derived using GraphPadPrism."}, "A427 cells": {"system": "A427 cells", "experiment": "Cell viability (CellTiter-Glo), A427", "assay_type": "cell-based", "conditions": "Homo sapiens, A-427; cell viability after 72 hours", "experimental": "as §2"}, "MAPK1 (ERK2)": {"target": "MAPK1 (ERK2) (Homo sapiens (Human), UniProt P28482)", "sequence (P28482 whole entry)": "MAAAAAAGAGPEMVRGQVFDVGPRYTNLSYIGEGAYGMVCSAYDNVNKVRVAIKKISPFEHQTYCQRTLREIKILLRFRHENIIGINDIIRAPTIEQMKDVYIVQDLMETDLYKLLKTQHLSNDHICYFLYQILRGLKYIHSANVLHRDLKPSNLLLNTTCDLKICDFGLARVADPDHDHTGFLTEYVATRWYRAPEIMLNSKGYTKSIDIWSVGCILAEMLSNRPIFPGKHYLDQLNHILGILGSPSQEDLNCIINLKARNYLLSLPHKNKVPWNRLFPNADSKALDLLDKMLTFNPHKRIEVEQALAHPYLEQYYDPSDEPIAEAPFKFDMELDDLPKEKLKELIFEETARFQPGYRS", "experiment": "SelectScreen Kinase Profiling: MAPK1 (ERK2)", "assay_type": "biochemical", "conditions": "tested at 300-350 nM", "description": "as §1"}, "MAPK8 (JNK1)": {"target": "MAPK8 (JNK1) (Homo sapiens (Human), UniProt P45983)", "experiment": "SelectScreen Kinase Profiling: MAPK8 (JNK1)", "assay_type": "biochemical", "conditions": "tested at 300-350 nM", "description": "as §1"}, "Wee-1 kinase": {"target": "Wee-1 kinase (Homo sapiens (Human), UniProt P30291)", "sequence (P30291 whole entry)": "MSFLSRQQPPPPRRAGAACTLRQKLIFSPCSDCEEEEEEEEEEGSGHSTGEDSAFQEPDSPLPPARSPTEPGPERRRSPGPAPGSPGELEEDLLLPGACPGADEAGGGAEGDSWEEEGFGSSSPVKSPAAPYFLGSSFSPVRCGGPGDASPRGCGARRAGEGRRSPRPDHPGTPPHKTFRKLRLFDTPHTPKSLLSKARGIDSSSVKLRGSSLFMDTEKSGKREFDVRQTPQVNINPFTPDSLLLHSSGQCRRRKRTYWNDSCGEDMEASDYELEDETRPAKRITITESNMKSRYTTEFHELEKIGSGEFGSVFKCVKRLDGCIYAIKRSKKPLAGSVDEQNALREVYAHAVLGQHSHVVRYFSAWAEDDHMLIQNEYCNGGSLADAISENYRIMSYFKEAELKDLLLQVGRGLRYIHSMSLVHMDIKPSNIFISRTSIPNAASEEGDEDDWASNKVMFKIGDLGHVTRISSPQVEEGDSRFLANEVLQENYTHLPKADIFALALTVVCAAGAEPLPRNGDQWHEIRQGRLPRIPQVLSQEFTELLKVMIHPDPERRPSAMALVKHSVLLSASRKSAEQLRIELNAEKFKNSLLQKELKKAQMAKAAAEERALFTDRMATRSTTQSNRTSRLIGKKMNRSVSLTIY", "experiment": "Measurement of Wee-1 kinase activity (ADP-Glo luminescence)", "assay_type": "biochemical", "conditions": "for IC50: data obtained as described in the experimental section of the current invention, read-out: Wee-1/nM", "procedure,_shortened": "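Activated Wee-1 preincubated 30 min at RT with compound in Tris/MgCl2 buffer with BSA and DTT, then reacted 1 h at RT with poly(Lys,Tyr 4:1) (2.0 μg/mL) and 30 μM ATP as added aliquot. ADP formed measured by ADP-Glo luminescence; IC50 by non-linear regression of % inhibition.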"}, "CDK1/cyclin B": {"target": "CDK1/cyclin B (Homo sapiens (Human), UniProt P06493)", "sequence (P06493 whole entry)": "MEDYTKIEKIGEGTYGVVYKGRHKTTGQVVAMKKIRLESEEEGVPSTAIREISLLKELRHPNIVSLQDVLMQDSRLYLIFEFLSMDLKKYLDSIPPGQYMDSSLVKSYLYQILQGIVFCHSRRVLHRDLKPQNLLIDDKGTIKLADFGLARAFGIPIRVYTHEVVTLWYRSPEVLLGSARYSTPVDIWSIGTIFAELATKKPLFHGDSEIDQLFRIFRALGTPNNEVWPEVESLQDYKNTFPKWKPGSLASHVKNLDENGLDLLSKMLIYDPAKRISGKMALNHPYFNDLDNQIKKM", "sequence (P14635 whole entry partner)": "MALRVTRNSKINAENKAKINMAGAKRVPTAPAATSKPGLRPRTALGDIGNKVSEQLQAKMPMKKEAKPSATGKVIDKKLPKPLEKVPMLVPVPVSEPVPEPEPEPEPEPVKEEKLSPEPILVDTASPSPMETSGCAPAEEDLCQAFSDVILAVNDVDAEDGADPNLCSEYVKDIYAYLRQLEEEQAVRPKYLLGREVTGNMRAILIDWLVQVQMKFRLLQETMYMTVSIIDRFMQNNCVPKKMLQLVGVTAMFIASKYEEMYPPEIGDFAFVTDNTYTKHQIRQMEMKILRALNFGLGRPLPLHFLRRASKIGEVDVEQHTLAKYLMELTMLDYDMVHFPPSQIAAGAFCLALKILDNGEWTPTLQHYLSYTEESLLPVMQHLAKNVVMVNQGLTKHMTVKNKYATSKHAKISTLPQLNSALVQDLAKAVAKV", "experiment": "SelectScreen Kinase Profiling: CDK1/cyclin B", "assay_type": "biochemical", "conditions": "tested at 300-350 nM", "description": "as §1"}, "AMPK A1/B1/G1": {"target": "AMPK A1/B1/G1 (Homo sapiens (Human), UniProt Q13131)", "sequence (Q13131 whole entry)": "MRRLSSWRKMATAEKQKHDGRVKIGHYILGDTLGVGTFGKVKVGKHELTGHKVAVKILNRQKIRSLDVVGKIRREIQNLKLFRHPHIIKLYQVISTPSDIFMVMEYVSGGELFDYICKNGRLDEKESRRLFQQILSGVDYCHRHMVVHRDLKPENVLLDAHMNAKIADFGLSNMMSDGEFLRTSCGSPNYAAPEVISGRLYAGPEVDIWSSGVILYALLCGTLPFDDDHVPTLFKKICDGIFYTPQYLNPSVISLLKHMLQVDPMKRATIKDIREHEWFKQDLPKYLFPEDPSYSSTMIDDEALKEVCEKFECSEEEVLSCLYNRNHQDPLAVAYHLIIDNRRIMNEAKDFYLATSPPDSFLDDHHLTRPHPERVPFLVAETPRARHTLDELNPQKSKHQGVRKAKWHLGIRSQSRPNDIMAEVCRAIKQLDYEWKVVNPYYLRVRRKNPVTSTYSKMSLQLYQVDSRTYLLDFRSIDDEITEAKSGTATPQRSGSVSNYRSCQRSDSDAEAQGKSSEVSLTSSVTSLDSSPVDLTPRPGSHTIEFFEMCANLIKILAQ", "sequence (Q9Y478 whole entry partner)": "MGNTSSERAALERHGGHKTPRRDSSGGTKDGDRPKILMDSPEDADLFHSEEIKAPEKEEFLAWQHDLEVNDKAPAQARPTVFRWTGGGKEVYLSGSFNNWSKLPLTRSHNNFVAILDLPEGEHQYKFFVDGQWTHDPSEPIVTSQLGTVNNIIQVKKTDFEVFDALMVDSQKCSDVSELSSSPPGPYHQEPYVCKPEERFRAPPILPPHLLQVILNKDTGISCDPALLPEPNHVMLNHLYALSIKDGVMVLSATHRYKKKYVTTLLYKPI", "sequence (P54619 whole entry partner)": "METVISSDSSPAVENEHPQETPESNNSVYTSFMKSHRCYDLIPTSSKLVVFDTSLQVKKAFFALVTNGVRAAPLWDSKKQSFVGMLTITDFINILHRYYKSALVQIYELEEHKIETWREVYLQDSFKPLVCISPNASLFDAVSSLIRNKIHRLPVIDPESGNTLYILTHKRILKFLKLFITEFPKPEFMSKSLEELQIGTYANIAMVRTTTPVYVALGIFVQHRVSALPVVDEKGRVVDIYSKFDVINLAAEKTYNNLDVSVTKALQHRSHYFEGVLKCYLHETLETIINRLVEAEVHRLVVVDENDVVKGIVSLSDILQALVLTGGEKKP", "experiment": "SelectScreen Kinase Profiling: AMPK A1/B1/G1", "assay_type": "biochemical", "conditions": "tested at 300-350 nM", "description": "as §1"}, "MET (cMet)": {"target": "MET (cMet) (Homo sapiens (Human), UniProt P08581)", "experiment": "SelectScreen Kinase Profiling: MET (cMet)", "assay_type": "biochemical", "conditions": "tested at 300-350 nM", "description": "as §1"}, "INSR": {"target": "INSR (Homo sapiens (Human), UniProt P06213)", "sequence (P06213 28-1382)": "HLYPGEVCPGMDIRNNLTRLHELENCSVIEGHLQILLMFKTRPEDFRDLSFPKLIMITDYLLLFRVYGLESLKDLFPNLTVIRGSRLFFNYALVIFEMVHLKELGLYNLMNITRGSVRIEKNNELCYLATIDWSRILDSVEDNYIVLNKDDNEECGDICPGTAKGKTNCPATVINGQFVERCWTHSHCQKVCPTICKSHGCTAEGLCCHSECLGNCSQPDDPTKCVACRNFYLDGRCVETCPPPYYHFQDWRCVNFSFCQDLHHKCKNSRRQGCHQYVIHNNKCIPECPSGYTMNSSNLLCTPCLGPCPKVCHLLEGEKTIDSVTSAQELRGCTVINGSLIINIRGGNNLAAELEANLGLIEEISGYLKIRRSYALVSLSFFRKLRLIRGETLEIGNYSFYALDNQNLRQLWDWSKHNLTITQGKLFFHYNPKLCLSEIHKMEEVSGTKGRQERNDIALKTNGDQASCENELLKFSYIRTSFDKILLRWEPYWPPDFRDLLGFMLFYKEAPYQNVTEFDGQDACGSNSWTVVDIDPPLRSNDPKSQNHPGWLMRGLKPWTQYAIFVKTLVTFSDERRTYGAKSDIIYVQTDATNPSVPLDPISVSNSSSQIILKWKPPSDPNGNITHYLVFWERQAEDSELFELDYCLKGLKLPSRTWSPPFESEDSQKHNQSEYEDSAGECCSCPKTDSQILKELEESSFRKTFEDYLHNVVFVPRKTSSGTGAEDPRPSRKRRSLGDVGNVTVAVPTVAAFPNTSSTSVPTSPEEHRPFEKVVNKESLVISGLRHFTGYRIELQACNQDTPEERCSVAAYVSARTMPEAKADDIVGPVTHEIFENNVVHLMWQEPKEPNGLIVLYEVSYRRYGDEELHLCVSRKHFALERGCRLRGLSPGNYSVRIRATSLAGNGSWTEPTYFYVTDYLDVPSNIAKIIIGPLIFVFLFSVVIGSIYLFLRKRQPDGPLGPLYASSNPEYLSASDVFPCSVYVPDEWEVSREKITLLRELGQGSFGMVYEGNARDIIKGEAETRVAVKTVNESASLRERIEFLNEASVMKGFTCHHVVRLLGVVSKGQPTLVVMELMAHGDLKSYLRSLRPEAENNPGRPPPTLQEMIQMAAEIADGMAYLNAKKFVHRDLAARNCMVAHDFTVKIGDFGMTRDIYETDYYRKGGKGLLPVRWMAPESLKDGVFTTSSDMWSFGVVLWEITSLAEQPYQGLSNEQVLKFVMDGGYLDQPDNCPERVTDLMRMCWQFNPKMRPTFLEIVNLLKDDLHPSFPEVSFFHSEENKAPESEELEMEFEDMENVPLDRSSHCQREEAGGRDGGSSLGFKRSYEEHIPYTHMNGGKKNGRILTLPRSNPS", "experiment": "SelectScreen Kinase Profiling: INSR", "assay_type": "biochemical", "conditions": "tested at 300-350 nM", "description": "as §1"}, "MAPK14 (p38 alpha)": {"target": "MAPK14 (p38 alpha) (Homo sapiens (Human), UniProt Q16539)", "sequence (Q16539 whole entry)": "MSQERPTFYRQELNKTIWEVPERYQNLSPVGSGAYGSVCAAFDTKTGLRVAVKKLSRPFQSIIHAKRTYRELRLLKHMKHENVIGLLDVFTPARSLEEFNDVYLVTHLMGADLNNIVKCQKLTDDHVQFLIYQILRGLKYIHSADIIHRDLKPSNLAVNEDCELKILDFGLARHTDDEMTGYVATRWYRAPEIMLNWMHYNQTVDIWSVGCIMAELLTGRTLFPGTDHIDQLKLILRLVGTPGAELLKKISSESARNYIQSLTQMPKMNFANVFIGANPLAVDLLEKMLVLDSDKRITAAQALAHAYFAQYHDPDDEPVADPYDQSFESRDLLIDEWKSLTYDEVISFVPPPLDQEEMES", "experiment": "SelectScreen Kinase Profiling: MAPK14 (p38 alpha)", "assay_type": "biochemical", "conditions": "tested at 300-350 nM", "description": "as §1"}}, "note": "pEC50, pIC50: −log10 of the molar value. Like-named read-outs stand apart in the source and are kept apart here."}
{"smiles": "C=CCn1c(=O)c2cnc(Nc3ccc(N4CCN(C)CC4)cc3)nc2n1-c1cccc(N=S(C)(C)=O)n1", "note": "[Example 5, 1-(6-{[Dimethyl(oxo)-λ^6-sulfanylidene]amino}pyridine-2-yl)-6-{[4-(4-methylpiperazin-1-yl)phenyl]amino}-2-(prop-2-en-1-yl)-1H,2H,3H-pyrazolo[3,4-d]pyrimidin-3-one]", "values": [{"measurement": "inhibition of ROCK1", "setting": "ROCK1", "result": "− (inhibition under 50% (tested at 300-350 nM))"}, {"measurement": "pEC50", "setting": "HT29 cells", "result": 7.48}, {"measurement": "pEC50", "setting": "A427 cells", "result": 7.54}, {"measurement": "inhibition of MAPK1 (ERK2)", "setting": "MAPK1 (ERK2)", "result": "− (inhibition under 50% (tested at 300-350 nM))"}, {"measurement": "inhibition of MAPK8 (JNK1)", "setting": "MAPK8 (JNK1)", "result": "− (inhibition under 50% (tested at 300-350 nM))"}, {"measurement": "IC50", "setting": "Wee-1 kinase; Table 5", "result": 1.2, "unit": "nM"}, {"measurement": "IC50", "setting": "Wee-1 kinase; Table 7", "result": 1.2, "unit": "nM"}, {"measurement": "pIC50", "setting": "Wee-1 kinase; read-out: Wee1 IC50", "result": 8.92}, {"measurement": "inhibition of CDK1/cyclin B", "setting": "CDK1/cyclin B", "result": "− (inhibition under 50% (tested at 300-350 nM))"}, {"measurement": "inhibition of AMPK A1/B1/G1", "setting": "AMPK A1/B1/G1", "result": "− (inhibition under 50% (tested at 300-350 nM))"}, {"measurement": "inhibition of MET (cMet)", "setting": "MET (cMet)", "result": "− (inhibition under 50% (tested at 300-350 nM))"}, {"measurement": "inhibition of INSR", "setting": "INSR", "result": "− (inhibition under 50% (tested at 300-350 nM))"}, {"measurement": "inhibition of MAPK14 (p38 alpha)", "setting": "MAPK14 (p38 alpha)", "result": "− (inhibition under 50% (tested at 300-350 nM))"}]}
